The test system of one data set is MNK1. In words: Apta-western with biotin-labeled aptamer. Type of data set: binding. An excerpt: FIGS. 6A-6C. Characterization of the interaction of aptamer apMNKQ2 with MNK1 by means of Apta-western. Detection of MNK1a and MNK1b, as well as of the two GST-bound variants MNK1aΔ77 and MNK1ΔCt, with biotin-labeled aptamer apMNKQ2 in electrophoresis (12%) in denaturing conditions (FIG. 6A) and in native conditions (without SDS or β-mercaptoethanol) (FIG. 6B). Quantification of protein levels in relation to MNK1a (*p<0.05 with respect to 1) (FIG. 6C).
In the apta-western assays, the proteins were resolved in polyacrylamide gels in native or denaturing conditions, transferred to PVDF membranes, and incubated with aptamers and streptavidin-peroxidase as indicated above after blocking with 5% PBS-BSA. Finally, the signal was visualized with the chemiluminescence developing system (Clarity Western ECL, BioRad, USA).
On the other hand, apta-western assays were carried out to confirm the affinity of the aptamer apMNKQ2 for proteins MNK1a and MNK1b. To that end, the four constructs used in FIG. 5A were analyzed by electrophoresis, blot, and apta detection. […] This may be due to the fact that the site the aptamer recognizes may not be accessible in all the proteins when they are structured and said site may be exposed as the proteins denature. […] The result is shown in FIG. 6B and quantified in FIG. 6C.

Data set [1] deals with MCF7, MDA-MB-231, and MDAMB-468 cells. The data set can be described thus: Aptamer penetration into cells (Alexa-488 fluorescence microscopy). Conditions: Alexa fluor 488-conjugated aptamer 250 nM added to medium, 24 hours, compared with lipofectamine transfection. The data set is classed as cell-based, human. As for the experimental part: FIGS. 16A & 16B. Study of aptamer apMNKQ2 penetration into cells. MCF7, MDA-MB-231, and MDAMB-468 cells were seeded in 24-well plates with a cover glass at a density of 3×10^4 cells/well, with the transfection/addition of apMNKQ2 labeled with Alexa-488 at 250 nM at 24 hours. Twenty-four hours after transfection, the cells were fixed, stained with Hoechst, and mounted on slides with Prolong™ mounting medium. The number refers to the intensity of the aptamer measured with the imageJ program and expressed in arbitrary units.
To analyze cell penetration by apMNKQ2, 3×10^4 cells/well were seeded on cover glasses and the structured, Alexa fluor 488-conjugated aptamer at 250 nM was added to the cell medium at 24 hours. In parallel, the aptamer was transfected with lipofectamine at the same concentration. After 24 hours, the cells were fixed and stained with Hoechst.

Another data set concerns MCF7 cells. In words: Colony formation assay. Type of data set: cell-based, human. Conditions: MCF7, 150 nM, colonies quantified 9-12 days after seeding. As for the experimental part:
(§1) FIGS. 12A & 12B. Effect of apMNKQ2 on cell clonogenicity. MCF7, MDA-MB-231, and MDA-MB-468 cells were seeded in 24-well plates at a density of 3×10^4 cells/well and transfected at 24 hours with apMNKQ2 at the previously established working concentrations (FIG. 12A). After 24 hours, the cells were collected, counted, and seeded in 6-well plates with 1000 cells/well for MCF7 and MDA-MB-231 and with 5000 cells/well for MDA-MB-468 (FIG. 12B). The boxes represent the mean±the maximum and minimum of 4-5 independent experiments (*p<0.05 and **p<0.01 with respect to the control aptamer AT).
(§2) To perform these assays, 3×10^4 cells/well were seeded in 24-well plates with every 2 wells being considered an experimental point. At 16-24 hours, the cells were transfected with apMNKQ2 or the control aptamer. At 16-24 hours post-transfection, the cells of every two wells were pooled, resuspended in the corresponding medium, counted, and after performing the suitable dilutions, reseeded 1×10^3 or 5×10^3 cells/well in duplicate in 6-well plates. These plates were left in the incubator with a moisture-saturated environment at 37° C. and 5% CO2/[…] for 8-9 days. After this time, the colonies were fixed with methanol (Merck, Germany) for 10 minutes, stained with 0.02% giemsa (Sigma-Aldrich, USA) for 30 minutes, washed with water to eliminate the remaining dye, and left to dry at room temperature. To count the colonies, a colony counter pen (Heathrow Scientific® LLC, United Kingdom) and a magnifying glass (1.75×) (Bel-Art Scienceware, USA) were used. The results were expressed in number of colonies and normalized in percentage with respect to the control.
(§3) For these assays, 1000 cells/well in 6-well plates had previously been established for the MCF7 and MDA-MB-231 lines, however, the PE of the MDA-MB-468 cells was lower (11.5±5.3%), so 5000 cells were seeded. The cells were transfected with apMNKQ2 and the control AT, and collected and reseeded at 24 hours to perform the colony formation assay. The colonies were quantified 9-12 days after seeding. […]

The subject of another data set is MDA-MB-468 cells. The data set can be described thus: Colony formation assay. The data set is classed as cell-based, human. The following applies: MDA-MB-468, 50 nM, colonies quantified 9-12 days after seeding. As for the experimental part:
as §1, §2, §3

For a further data set, the system named is MDA-MB-231 cells. The data set can be described thus: Colony formation assay. The data set is classed as cell-based, human. The following applies: MDA-MB-231, 400 nM, colonies quantified 9-12 days after seeding. As for the experimental part: as §1, §2, §3

Results on one substance are retold here after patent US12492403B2, “Aptamers and the use thereof in the treatment of cancer” (FUNDACIÓN PARA LA INVESTIGACIÓN BIOMÉDICA DEL HOSPITAL …, priority 2018, dated 2025).

As for “5′TGGGGTGGGCGGGCGGGGGTGGGGGTGGT-3′ (DNA, backbone and methylation of C not given here; further chemistry not fully specified) [apMNKQ2]”, the “recognition of MNK1a, MNK1b, MNK1aΔ77 and MNK1ΔCt (apta-western)” value in the data set with MNK1 (denaturing conditions) is “capable of recognizing and binding to the four isoforms of the protein in a similar manner”; with MNK1 (native conditions (without SDS or β-mercaptoethanol)), “capable of significantly differentiating MNK1b from other isoforms”. In addition, in data set [1], the “penetration into cells without transfectant” value is recorded as “capable of only entering the cells, although with a lower intensity”. Further, the “inhibition in colony formation with respect to control aptamer AT” value in the data set with MCF7 cells, with MDA-MB-468 cells and with MDA-MB-231 cells was “statistically significant” each time.
